Data: EP0975351B1, “TREATMENT OF MULTIPLE SCLEROSIS THROUGH INGESTION OF COPOLYMER-1” (YEDA RESEARCH AND DEVELOPMENT CO. LTD., priority 1997, dated 1998)

Assays:
[1] = tested on: rat spleen cell suspension stimulated with GPBP; assay: Proliferation assay of spleen cells in response to GPBP, fed rats; type: cell-based; conditions: spleen cells of orally fed rats, 10-11 days after EAE induction (Figure 1)
Protocol: (§1) Rats were immunized with 25 µg of GPBP emulsified 1:1 in CFA containing 4 mg/ml. H37Ra. The emulsion at a total volume of 0.1 ml. was injected into the two hindfoot pads.
(§2) Rats were fed with 1 mg GPBP or glatiramer acetate dissolved in PBS by gastric intubation using a sterile feeding tube (Uno Plast, Denmark). Rats were fed 5 times (total dose of 5 mg) before disease induction at intervals of 2-3 days. EAE was induced two days after the last feeding. Control mice and rats were mock fed with PBS.
Proliferation Assay - The proliferation response of spleen cells was tested 10-11 days after EAE induction as described above. Cells from 3 animals in each group were pooled and cultured in triplicate (5x10^5 mouse cells and 2x10^5 rat cells) in microtiter plates with various antigen concentrations (GPBP) in a final volume of 0.2ml. Microtiter plates contained RPMI 1640 (available from Sigma Biochemicals, St. Louis, Missouri) culture medium supplemented with 1% autologous serum. After 72 hr. of incubation, cells were pulsed with 1 µCi {^3H}-thymidine for 18 hr and then harvested onto filter papers and radioactivity was counted.

EAE [2] = assay: EAE in Rhesus monkeys, enteric-coated versus cracked coating capsules (Example 4); type: in vivo; conditions: for protection from the disease: Fig. 10
Protocol: Six monkeys were treated and subsequent analyses performed substantially according to the protocol described for Example 3 hereinabove.
Control placebo-fed animal 18746 was fed with capsules containing glucose. Animal 18586 was fed with 1 mg glatiramer acetate in capsules with cracked […]. Animal 18586 was fed with 1 mg glatiramer acetate in capsules with cracked enteric coating. Animal 18639 was fed with 20 mg glatiramer acetate in capsules with cracked enteric coating. […] Animal 18962 was fed with 20 mg glatiramer acetate in intact enteric coated capsules.
The schedule of feeding, disease induction and follow-up were substantially the same as those of Example 3 described hereinabove.

[3] = tested on: MBP-specific T suppressor Inducer factor; assay: Assay for MBP-specific T suppressor inducer factor in plasma (3C9 antibody); type: in vivo, Rhesus Monkeys; conditions: for MBP-specific T suppressor Inducer factor: plasma 1:20 dilution; for anti-Tsfi (3C9 Ab): plasma material bound to MBP (2.5µg)
Description: The analysis, for MBP-specific Tsfi in the plasma of the three monkeys in this Example are seen in Tables 5 and 6 below. None of the animals produced MBP-specific Tsfi until day +13 following EAE induction with MBP. […] Glatiramer acetate fed animals 18497 and 18498 consistently produced significant levels of Tsfi from day +13 until day +41 shortly before termination.
Recombinant human TGF-beta reacted with the anti-TGF-beta, but not 3C9 antibody. Table 5: Assay for MBP-specific T suppressor Inducer factora

EAE [4] = assay: Suppression of EAE in rats by oral administration; type: in vivo, Lewis rats
Protocol: as §1
Animals were examined daily from day 10 post induction for signs of disease. EAE was scored as follows: 0-no disease, 1-limp tail, 2-hind limb paralysis, 3-paralysis of all four limbs, 4-moribund condition, 5-death.
as §2

[5] = tested on: experimental allergic encephalomyelitis (EAE); conditions: EAE induced by MSCH, MBP, PLP, MOG in a variety of species; cited from earlier work
[6] = capsules with cracked enteric coating, 1 mg (animal 18586) and 20 mg (animal 18639)
[7] = animal 18497, 1mg/feeding then 20mg capsules after day 33, day +41
[8] = animal 18497, 1mg/feeding, day +6
[9] = animal 18497, 1mg/feeding, day +13
[10] = animal 18497, 1mg/feeding, day +27
[11] = animal 18498, 20mg/feeding, day +6
[12] = animal 18498, 20mg/feeding, day +13
[13] = animal 18498, 20mg/feeding, day +27
[14] = animal 18498, 20mg/feeding, day +41

## glatiramer acetate
[1]
  proliferative responses to GPBP: almost complete inhibition
EAE [2]; [6]
  time to death from disease manifestations: 2 to 3 days
  protection from the disease: not protected from the disease
EAE [2]; intact enteric coated capsules, 1 mg, 10 mg, 20 mg (animals 18724, 18810, 18962)
  protection from the disease: fully protected from the disease
EAE [2]; intact enteric coated capsules, 1 mg, 10 mg, 20 mg, until day 60 when sacrificed
  signs of EAE: developed no signs of EAE until day 60
[3]; animal 18497, 1mg/feeding then 20mg capsules after day 33, day +34
  MBP-specific T suppressor Inducer factor: .66 OD at 405nm
[3]; [7]
  MBP-specific T suppressor Inducer factor: .76 OD at 405nm
  anti-Tsfi (3C9 Ab): 0.76 OD405 nm
[3]; [8]
  MBP-specific T suppressor Inducer factor: none
  anti-Tsfi (3C9 Ab): none
[3]; [9]
  MBP-specific T suppressor Inducer factor: .60 OD at 405nm
  anti-Tsfi (3C9 Ab): 0.60 OD405 nm
[3]; animal 18497, 1mg/feeding, day +20
  MBP-specific T suppressor Inducer factor: .61 OD at 405nm
[3]; [10]
  MBP-specific T suppressor Inducer factor: .56 OD at 405nm
  anti-Tsfi (3C9 Ab): 0.56 OD405 nm
[3]; animal 18497, 1mg/feeding, day -1
  MBP-specific T suppressor Inducer factor: none
[3]; animal 18497, 1mg/feeding, day -13
  MBP-specific T suppressor Inducer factor: none
[3]; [11]
  MBP-specific T suppressor Inducer factor: none
  anti-Tsfi (3C9 Ab): none
[3]; [12]
  MBP-specific T suppressor Inducer factor: .32 OD at 405nm
  anti-Tsfi (3C9 Ab): 0.32 OD405 nm
[3]; animal 18498, 20mg/feeding, day +20
  MBP-specific T suppressor Inducer factor: .32 OD at 405nm
[3]; [13]
  MBP-specific T suppressor Inducer factor: .42 OD at 405nm
  anti-Tsfi (3C9 Ab): 0.42 OD405 nm
[3]; animal 18498, 20mg/feeding, day +34
  MBP-specific T suppressor Inducer factor: .40 OD at 405nm
[3]; [14]
  MBP-specific T suppressor Inducer factor: .40 OD at 405nm
  anti-Tsfi (3C9 Ab): 0.40 OD405 nm
[3]; animal 18498, 20mg/feeding, day -1
  MBP-specific T suppressor Inducer factor: none
[3]; animal 18498, 20mg/feeding, day -13
  MBP-specific T suppressor Inducer factor: none
EAE [4]; Lewis rats fed 1 mg 5 times before EAE induction, PBS control 11.9
  Mean Onset: 12.6 days
EAE [4]; Lewis rats fed 1 mg 5 times before EAE induction, score 0-5, PBS control 1.8±0.5
  Mean Maximal Score±SD: 0.78±0.45
EAE [4]; compared to PBS fed rats
  inhibition of incidence of EAE: 54%
  inhibition of severity of EAE: 57%
[5]
  suppression of EAE: suppress experimental allergic encephalomyelitis (EAE)
